Measured values reported in patent US12534457B2, “Heteroaryl derivative compounds, and uses thereof” (Voronoi Inc., priority 2021, dated 2026).

tested on: Ba/F3 cells expressing EGFR Del19/C797S (EGFR DC); test: Proliferation inhibitory activity, Ba/F3 cells expressing EGFR Del19/C797S (CellTiter-Glo); format: cell-based; conditions: Mus musculus, BaF3, 72 hours of compound treatment
Experimental: The following experiments were performed to evaluate the inhibitory activity of the compounds according to the present disclosure on Ba/F3 proliferation expressing EGFR C797S, L861Q, G719A, S768I, L718Q, and/or G724S mutations.
For Ba/F3 cells, RPMI-1640 containing 10% FBS and 5 ng/ml IL-3 (R&D Systems) was used. Transduced Ba/F3 cells were cultured after adding 1 μg/ml puromycin (Invitrogen) to the same medium.
At 24 hours before treatment with the compounds, 3000 to 5000 cells were aliquoted into each well of a white clear bottom 96 well plate (Corning). The compounds were diluted in dimethyl sulfoxide (3 times dilution, 12 concentrations in total), and injected in an amount of 1 μl so that the final concentration was 0.2 nM to 5 uM. For measurement of living cells, after 72 hours of compound treatment, the cells were stored at room temperature for 10 min using CellTiter-Glo luminescentcell-viability reagent (Promega), and then luminescence intensity was measured using a reader (SynergyNeo, Biotek). Each test was repeated three times. Result values were calculated as the cell growth rate (%) compared to the control. The graphs were created using GraphPad Prism version 8.3.0 program and the GI50 values were calculated.

Row | GI50 [nM] | SMILES
1 | < 50 | C=CCN1CCN(c2ccc(Nc3cc(N4OCC[C@@H]4c4ccccc4)ncn3)cc2)CC1 [Example 68, (R)—N-(4-(4-allylpiperazin-1-yl)phenyl)-6-(3-phenylisoxazolidin-2-yl)pyrimidin-4-amine]
2 | < 50 | COc1cc(N2CCC(N3CCN(CCS(C)(=O)=O)CC3)CC2)ccc1Nc1cc(N2OCC[C@@H]2c2cccc(F)c2F)ncn1 [Example 237, (R)-6-(3-(2,3-difluorophenyl)isoxazolidin-2-yl)-N-(2-methoxy-4-(4-(4-(2-(methylsulfonyl)ethyl)piperazin-1-yl)piperidin-1-yl)phenyl)pyrimidin-4-amine]
3 | < 50 | Cc1cc(Nc2cc(N3OCC[C@@H]3c3ccccc3)ncn2)ccc1N1CCC(N2CCN(C)CC2)CC1 [Example 53, (R)—N-(3-methyl-4-(4-(4-methylpiperazin-1-yl)piperidin-1-yl)phenyl)-6-(3-phenylisoxazolidin-2-yl)pyrimidin-4-amine]
4 | < 50 | COc1cc(N2CCC(N3CCN(C)CC3)CC2)ccc1Nc1cc(N2OCC[C@@H]2c2cc(F)cc(F)c2)ncn1 [Example 21, (R)-6-(3-(3,5-difluorophenyl)isoxazolidin-2-yl)-N-(2-methoxy-4-(4-(4-methylpiperazin-1-yl)piperidin-1-yl)phenyl)pyrimidin-4-amine]
5 | < 50 | Cn1cc(-c2cc(Nc3cc(N4OCC[C@@H]4c4ccccc4)ncn3)c(OCC(F)(F)F)cc2N2CCOCC2)cn1 [Example 167, (R)—N-(5-(1-methyl-1H-pyrazol-4-yl)-4-morpholino-2-(2,2,2-trifluoroethoxy)phenyl)-6-(3-phenylisoxazolidin-2-yl)pyrimidin-4-amine]
6 | < 50 | COc1cc(N2CCC(N3CCN(C)CC3)CC2)ccc1Nc1cc(N2OCC[C@@H]2c2ccc(F)cc2)ncn1 [Example 33, (R)-6-(3-(4-fluorophenyl)isoxazolidin-2-yl)-N-(2-methoxy-4-(4-(4-methylpiperazin-1-yl)piperidin-1-yl)phenyl)pyrimidin-4-amine]
7 | 50 to 500 | Fc1cccc([C@H]2CCON2c2cc(Nc3ccc([C@H]4CCON4)cc3)ncn2)c1F [Example 174, 6-((R)-3-(2,3-difluorophenyl)isoxazolidin-2-yl)-N-(4-((R)-isoxazolidin-3-yl)phenyl)pyrimidin-4-amine]
8 | < 50 | COc1cc(N2CCC(N(C)C)CC2)ccc1Nc1cc(N2OCC[C@@H]2c2ccccc2)ncn1 [Example 119, (R)—N-(4-(4-(dimethylamino)piperidin-1-yl)-2-methoxyphenyl)-6-(3-phenylisoxazolidin-2-yl)pyrimidin-4-amine]
9 | < 50 | Cc1cc(Nc2cc(N3OCC[C@@H]3c3ccccc3)ncn2)ccc1N1CCN(C)CC1 [Example 107, (R)—N-(3-methyl-4-(4-methylpiperazin-1-yl)phenyl)-6-(3-phenylisoxazolidin-2-yl)pyrimidin-4-amine]
10 | < 50 | COc1cc(N2CCCN(C)CC2)ccc1Nc1cc(N2OCC[C@@H]2c2ccccc2)ncn1 [Example 67, (R)—N-(2-methoxy-4-(4-methyl-1,4-diazepan-1-yl)phenyl)-6-(3-phenylisoxazolidin-2-yl)pyrimidin-4-amine]
11 | < 50 | CN1CCN(c2ccc(Nc3cc(N4OCC[C@@H]4Cc4ccccc4)ncn3)cc2)CC1 [Example 3, (S)-6-(3-benzylisoxazolidin-2-yl)-N-(4-(4-methylpiperazin-1-yl)phenyl)pyrimidin-4-amine]
12 | < 50 | CCN1CCN(C2CCN(c3ccc(Nc4cc(N5OCC[C@@H]5c5ccccc5)ncn4)c(OC)c3)CC2)CC1 [Example 118, (R)—N-(4-(4-(4-ethylpiperazin-1-yl)piperidin-1-yl)-2-methoxyphenyl)-6-(3-phenylisoxazolidin-2-yl)pyrimidin-4-amine]
13 | < 50 | C=CCN1CCN(C2CCN(c3ccc(Nc4cc(N5OCC[C@@H]5c5cccc(F)c5F)ncn4)c(OC)c3)CC2)CC1 [Example 206, (R)—N-(4-(4-(4-allylpiperazin-1-yl)piperidin-1-yl)-2-methoxyphenyl)-6-(3-(2,3-difluorophenyl)isoxazolidin-2-yl)pyrimidin-4-amine]
14 | < 50 | COc1cc(N2CCC(N3CCN(C)CC3)CC2)c(C)cc1Nc1cc(N2OCC[C@@H]2c2cc(F)cc(F)c2)ncn1 [Example 20, (R)-6-(3-(3,5-difluorophenyl)isoxazolidin-2-yl)-N-(2-methoxy-5-methyl-4-(4-(4-methylpiperazin-1-yl)piperidin-1-yl)phenyl)pyrimidin-4-amine]
15 | < 50 | c1ccc([C@H]2CCON2c2cc(Nc3ccc(N4CCNCC4)cc3)ncn2)cc1 [Example 77, (R)-6-(3-phenylisoxazolidin-2-yl)-N-(4-(piperazin-1-yl)phenyl)pyrimidin-4-amine]
16 | < 50 | CCc1cc(Nc2cc(N3OCC[C@@H]3c3ccc(F)cc3F)ncn2)c(OC)cc1N1CCC(N2CCN(C)CC2)CC1 [Example 93, (R)-6-(3-(2,4-difluorophenyl)isoxazolidin-2-yl)-N-(5-ethyl-2-methoxy-4-(4-(4-methylpiperazin-1-yl)piperidin-1-yl)phenyl)pyrimidin-4-amine]
17 | < 50 | COc1cc(N2CCC(N3CCN(C4CCC4)CC3)CC2)ccc1Nc1cc(N2OCC[C@@H]2c2cccc(F)c2F)ncn1 [Example 208, (R)—N-(4-(4-(4-cyclobutylpiperazin-1-yl)piperidin-1-yl)-2-methoxyphenyl)-6-(3-(2,3-difluorophenyl)isoxazolidin-2-yl)pyrimidin-4-amine]
18 | 50 to 500 | COc1cc(N2CCC(N3CCN(C)CC3)CC2)ccc1Nc1cc(N2OCC3(CC3)[C@H]2c2ccccc2)ncn1 [Example 234, (R)—N-(2-methoxy-4-(4-(4-methylpiperazin-1-yl)piperidin-1-yl)phenyl)-6-(7-phenyl-5-oxa-6-azaspiro[2.4]heptan-6-yl)pyrimidin-4-amine]
19 | 50 to 500 | CN1CCN(c2ccc(Nc3cc(N4OCC5(CC5)[C@@H]4c4ccccc4)ncn3)cc2)CC1 [Example 231, (S)—N-(4-(4-methylpiperazin-1-yl)phenyl)-6-(7-phenyl-5-oxa-6-azaspiro[2.4]heptan-6-yl)pyrimidin-4-amine]
20 | < 50 | Fc1ncc(N2C[C@@H]3C[C@H]2CO3)cc1Nc1cc(N2OCC[C@@H]2c2ccccc2)ncn1 [Example 74, N-(5-((1S,4S)-2-oxa-5-azabicyclo[2.2.1]heptan-5-yl)-2-fluoropyridin-3-yl)-6-((R)-3-phenylisoxazolidin-2-yl)pyrimidin-4-amine]
21 | 50 to 500 | Cn1cc(Nc2cc(N3OCC[C@@H]3c3ccccc3)ncn2)cn1 [Example 133, (R)—N-(1-methyl-1H-pyrazol-4-yl)-6-(3-phenylisoxazolidin-2-yl)pyrimidin-4-amine]
22 | 50 to 500 | COc1cc(N2CCC(N3CCN(C)CC3)CC2)ccc1Nc1cc(N2OCC[C@@H]2c2ccc(F)c(Cl)c2F)ncn1 [Example 130, (R)-6-(3-(3-chloro-2,4-difluorophenyl)isoxazolidin-2-yl)-N-(2-methoxy-4-(4-(4-methylpiperazin-1-yl)piperidin-1-yl)phenyl)pyrimidin-4-amine]
23 | < 50 | COc1cc(N2CCC(N3CCN(C4CC4)C(C)(C)C3)CC2)ccc1Nc1cc(N2OCC[C@@H]2c2ccccc2)ncn1 [Example 61, (R)—N-(4-(4-(4-cyclopropyl-3,3-dimethylpiperazin-1-yl)piperidin-1-yl)-2-methoxyphenyl)-6-(3-phenylisoxazolidin-2-yl)pyrimidin-4-amine]
24 | < 50 | COc1cc(N2CCC(N(C)C)CC2)ccc1Nc1cc(N2OCC[C@@H]2c2cc(F)cc(F)c2)ncn1 [Example 22, (R)-6-(3-(3,5-difluorophenyl)isoxazolidin-2-yl)-N-(4-(4-(dimethylamino)piperidin-1-yl)-2-methoxyphenyl)pyrimidin-4-amine]
25 | < 50 | CCc1cc(Nc2cc(N3OCC[C@@H]3c3ccccc3)ncn2)c(OC)cc1N1CCC(N2CCN(C)CC2)CC1 [Example 109, (R)—N-(5-ethyl-2-methoxy-4-(4-(4-methylpiperazin-1-yl)piperidin-1-yl)phenyl)-6-(3-phenylisoxazolidin-2-yl)pyrimidin-4-amine]
26 | < 50 | COc1cc(Nc2cc(N3OCC[C@@H]3c3cccc(Cl)c3F)ncn2)ccc1N1CCC(N2CCN(C)CC2)CC1 [Example 125, (R)-6-(3-(3-chloro-2-fluorophenyl)isoxazolidin-2-yl)-N-(3-methoxy-4-(4-(4-methylpiperazin-1-yl)piperidin-1-yl)phenyl)pyrimidin-4-amine]
27 | 50 to 500 | CN1CCN(Cc2cc(Nc3cc(N4OCC[C@@H]4c4cc(F)cc(F)c4)ncn3)cc(C(C)(C)C#N)c2)CC1 [Example 14, (R)-2-(3-((6-(3-(3,5-difluorophenyl)isoxazolidin-2-yl)pyrimidin-4-yl)amino)-5-((4-methylpiperazin-1-yl)methyl)phenyl)-2-methylpropanenitrile]
28 | < 50 | Cc1cc(N2CCC(N3CCN(C)CC3)CC2)ccc1Nc1cc(N2OCC[C@@H]2c2ccccc2)ncn1 [Example 52, (R)—N-(2-methyl-4-(4-(4-methylpiperazin-1-yl)piperidin-1-yl)phenyl)-6-(3-phenylisoxazolidin-2-yl)pyrimidin-4-amine]

Row | SMILES | GI50 [nM]
29 | COc1cc2c(cc1Nc1cc(N3OCC[C@@H]3c3cc(F)cc(F)c3)ncn1)N(C(=O)C(F)(F)F)CC21CCN(C)CC1 [Example 152, (R)-1-(6-((6-(3-(3,5-difluorophenyl)isoxazolidin-2-yl)pyrimidin-4-yl)amino)-5-methoxy-1′-methylspiro[indolin-3,4′-piperidin]-1-yl)-2,2,2-trifluoroethan-1-one] | < 50
